Results from ChEMBL document CHEMBL5149976, “β-Carbolines as potential anticancer agents” (Eur J Med Chem, 2021).
Converted amounts (≈) assume the structure as drawn.

How the values were obtained:
Calf thymus DNA [1] = assay: Stabilization of calf thymus DNA assessed as change in melting temperature; format: nucleic-acid assay; details: Bos taurus
Calf thymus DNA [2] = assay: Binding affinity to calf thymus DNA assessed as binding constant by spectrophotometric analysis; format: nucleic-acid assay; details: Bos taurus
[3] = tested on: Panel NCI-60 (60 carcinoma cell lines); assay: Cytotoxicity against human Panel NCI-60 (60 carcinoma cell lines) assessed as cell growth inhibition; format: functional, cell-based
[4] = Cytotoxicity against human KB-16 cells assessed as cell growth inhibition and measured after 5 hrs by MTT assay; format: functional, cell-based; details: KB16, 5 h
P388 [5] = assay: Cytotoxicity against mouse P388 cells assessed as cell growth inhibition and measured after 5 hrs by MTT assay; format: functional, cell-based; details: P388, 5 h
A549 [6] = assay: Cytotoxicity against human A549 cells assessed as cell growth inhibition and measured after 5 hrs by MTT assay; format: functional, cell-based; details: A549, 5 h
HT-29 [7] = assay: Cytotoxicity against human HT-29 cells assessed as cell growth inhibition and measured after 5 hrs by MTT assay; format: functional, cell-based; details: HT-29, 5 h
[8] = In vivo antitumor activity against mouse Lewis lung carcinoma cells xenografted in mouse model assessed as inhibition of cell growth relative to control; format: functional
LoVo = assay: Cytotoxicity against human LoVo cells assessed as cell growth inhibition; format: functional, cell-based
L1210 [9] = assay: Cytotoxicity against mouse L1210 cells assessed as cell growth inhibition; format: functional, cell-based
L5178Y = assay: Cytotoxicity against mouse L5178Y cells assessed as cell growth inhibition; format: functional, cell-based
[10] = Cytotoxicity against mouse C19 cells assessed as cell growth inhibition by MTT assay; format: functional, cell-based
NCI-H1299 = assay: Cytotoxicity against human NCI-H1299 cells assessed as cell growth inhibition; format: functional, cell-based
A549 [11] = assay: Cytotoxicity against human A549 cells assessed as cell growth inhibition by MTT assay; format: functional, cell-based
B16 = assay: Cytotoxicity against mouse B16 cells assessed as cell growth inhibition by MTT assay; format: functional, cell-based
A-375 = assay: Cytotoxicity against human A-375 cells assessed as cell growth inhibition; format: functional, cell-based
RPMI-8226 = assay: Cytotoxicity against human RPMI-8226 cells assessed as cell growth inhibition; format: functional, cell-based
CCRF-CEM = assay: Cytotoxicity against human CCRF-CEM cells assessed as cell growth inhibition; format: functional, cell-based
CCRF S-180 = assay: Antitumor activity against mouse CCRF S-180 cells allografted in ICR mouse assessed as tumor growth inhibition at 0.1 micromol/kg, iv administered for 7 days relative to control; format: functional; details: dose 0.1 µmol/kg, time 7 day
HOP-92 = assay: Anticancer activity against human HOP-92 cells; format: functional
HT-29 [12] = assay: Anticancer activity against human HT-29 cells; format: functional
M14 = assay: Anticancer activity against human M14 cells; format: functional
UACC-62 = assay: Anticancer activity against human UACC-62 cells; format: functional
OVCAR-3 [13] = assay: Anticancer activity against human OVCAR-3 cells; format: functional
MDA-MB-231 = assay: Anticancer activity against human MDA-MB-231 cells; format: functional
KB = assay: Cytotoxicity against human KB cells; format: functional, cell-based
MCF7 = assay: Cytotoxicity against human MCF7 cells assessed as cell growth inhibition; format: functional, cell-based
HeLa [14] = assay: Cytotoxicity against human HeLa cells assessed as cell growth inhibition; format: functional, cell-based
U-251 = assay: Cytotoxicity against human U-251 cells assessed as cell growth inhibition and measured after 48 hrs; format: functional, cell-based; details: U-251, 48 h
PC-3 = assay: Cytotoxicity against human PC-3 cells assessed as cell growth inhibition and measured after 48 hrs; format: functional, cell-based; details: PC-3, 48 h
OVCAR-3 [15] = assay: Cytotoxicity against human OVCAR-3 cells assessed as cell growth inhibition and measured after 48 hrs; format: functional, cell-based; details: OVCAR-3, 48 h
L1210 [16] = assay: Cytotoxicity against mouse L1210 cells; format: functional; details: read-out: ED50 (the source's name)
MOLT-4F = assay: Cytotoxicity against human MOLT-4F cells; format: functional; details: read-out: ED50 (the source's name)
MT4 = assay: Cytotoxicity against human MT4 cells; format: functional; details: read-out: ED50 (the source's name)
P388 [17] = assay: Cytotoxicity against mouse P388 cells; format: functional, cell-based; details: read-out: ED50 (the source's name)
HGC-27 = assay: Cytotoxicity against human HGC-27 cells assessed as inhibition of cell growth measured after 48 hrs by MTT assay; format: functional, cell-based; details: HGC-27, 48 h
HT-29 [18] = assay: Cytotoxicity against human HT-29 cells assessed as inhibition of cell growth measured after 48 hrs by MTT assay; format: functional, cell-based; details: HT-29, 48 h
DU-145 = assay: Cytotoxicity against human DU-145 cells assessed as cell growth inhibition by MTT assay; format: functional, cell-based; details: pooled result: one value given for 5 cell lines, strains, targets or settings
[19] = molecular target: DNA topoisomerase 1 (Homo sapiens) (UniProt P11387); assay: Inhibition of topoisomerase 1 (unknown origin) assessed as relaxation of pBR322 plasmid DNA and incubated for 10 mins
[20] = Anti-ferroptotic activity against human BJeLR cells assessed as cell growth inhibition; format: functional, cell-based
Calu-1 = assay: Anti-ferroptotic activity against human Calu-1 cells assessed as cell growth inhibition; format: functional, cell-based
HepG2 = assay: Cytotoxicity against human HepG2 cells assessed as cell growth inhibition and measured after 24 hrs by MTT assay; format: functional, cell-based; details: HepG2, 24 h
HeLa [21] = assay: Cytotoxicity against human HeLa cells assessed as cell growth inhibition and measured after 24 hrs by MTT assay; format: functional, cell-based

Chain of DNA topoisomerase 1 (Homo sapiens) (P11387 whole entry): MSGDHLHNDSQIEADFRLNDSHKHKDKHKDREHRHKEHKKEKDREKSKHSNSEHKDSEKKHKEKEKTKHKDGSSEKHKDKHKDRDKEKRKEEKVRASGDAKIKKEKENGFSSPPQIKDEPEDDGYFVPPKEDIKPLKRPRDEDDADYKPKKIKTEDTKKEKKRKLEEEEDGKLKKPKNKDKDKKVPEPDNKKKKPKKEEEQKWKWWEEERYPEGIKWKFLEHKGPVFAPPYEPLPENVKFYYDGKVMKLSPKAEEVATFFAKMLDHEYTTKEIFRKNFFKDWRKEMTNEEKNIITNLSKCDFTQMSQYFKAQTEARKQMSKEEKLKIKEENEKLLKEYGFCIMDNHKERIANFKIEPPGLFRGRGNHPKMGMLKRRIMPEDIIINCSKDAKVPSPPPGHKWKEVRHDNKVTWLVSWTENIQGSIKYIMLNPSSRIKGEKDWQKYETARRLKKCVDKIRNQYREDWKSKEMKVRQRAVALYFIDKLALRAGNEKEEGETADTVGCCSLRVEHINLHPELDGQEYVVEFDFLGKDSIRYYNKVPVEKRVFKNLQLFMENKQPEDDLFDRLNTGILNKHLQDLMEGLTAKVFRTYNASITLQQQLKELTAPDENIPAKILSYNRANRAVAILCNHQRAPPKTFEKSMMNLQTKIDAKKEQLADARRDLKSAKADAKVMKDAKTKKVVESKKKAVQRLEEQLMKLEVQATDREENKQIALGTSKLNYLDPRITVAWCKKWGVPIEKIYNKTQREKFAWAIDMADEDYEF

Compound: NCCCCNC(=O)c1cc2c(cn1)[nH]c1ccccc12
- ΔTm (Calf thymus DNA [1]): 5.7 °C
- K (Calf thymus DNA [2]): 4.5 10^4/M

Compound: Fc1ccc(-c2nc(-c3nc4ccc(Cl)cc4[nH]3)cc3c2[nH]c2ccccc23)cc1
- IC50 [3]: 1900 nM

Compound: COc1ccc2nc(-c3cc4c([nH]c5ccccc54)c(-c4ccc(F)c(F)c4)n3)[nH]c2c1
- IC50 [3]: 1900 nM

Compound: O=Cc1cc2c([nH]c3ccccc32)c(-c2ccccc2)n1
- IC50 [3]: 360 nM

Compound: CCn1c2ccccc2c2cc(C3NCCc4c3[nH]c3ccccc43)ccc21 (stereo not given)
- IC50 [4]: < 0.001 µg/mL
- IC50 (P388 [5]): < 0.001 µg/mL
- IC50 (A549 [6]): < 0.001 µg/mL
- IC50 (HT-29 [7]): < 0.001 µg/mL

Compound: CCCCn1c2ccccc2c2ccnc(C(=O)OCCCCCCOC(=O)c3nccc4c5ccccc5n(CCCC)c34)c21
- inhibition (INH) [8]: 64.2%

Compound: CCCCc1nc(C(=O)O)cc2c1[nH]c1ccccc12
- IC50 (LoVo): 11000 nM

Compound: c1ccc(-c2nc(-c3nc4ccccc4[nH]3)cc3c2[nH]c2ccccc23)cc1
- IC50 [3]: 360 nM

Compound: Cc1ccc(C[C@H](N)[C@@H]2NCCc3c2[nH]c2ccc(Br)cc32)cc1
- IC50 (L1210 [9]; Mus musculus, L1210): 3100 nM
- IC50 (L1210 [9]; l1210): 3400 nM
- IC50 (L5178Y): 3100 nM

Compound: COC(=O)[C@@H]1Cc2c([nH]c3ccccc23)[C@@H](c2ccccc2)N1
- IC50 [3]: 360 nM

Compound: c1ccc2c(-c3nccc4c3[nH]c3ccccc34)c[nH]c2c1
- IC50 [10]: 15600 nM

Compound: c1ccc2c(c1)[nH]c1c(CNCCOCCNCc3nccc4c3[nH]c3ccccc34)nccc12
- IC50 (NCI-H1299): 1600 nM

Compound: O=C(/C=C/C1Cc2c([nH]c3ccccc23)C(c2ccc(F)cc2)N1)c1ccc(F)cc1 (stereo not given)
- IC50 (A549 [11]): 5650 nM
- IC50 (B16): 7340 nM

Compound: c1ccc2c(c1)[nH]c1c(CNCCOCCOCCNCc3nccc4c3[nH]c3ccccc34)nccc12
- IC50 (A-375): 2000 nM

Compound: COc1ccc(-c2nc(-c3nc4ccc(OC)cc4[nH]3)cc3c2[nH]c2ccccc23)cc1
- IC50 [3]: 1900 nM
- IC50 (RPMI-8226): 360 nM
- IC50 (CCRF-CEM): 880 nM

Compound: COc1cc(-c2nc(C(=O)N[C@@H](Cc3c[nH]c4ccccc34)C(=O)N[C@@H](Cc3c[nH]c4ccccc34)C(=O)N[C@@H](CO)C(=O)OCc3ccccc3)cc3c2[nH]c2ccccc23)ccc1O
- TGI (CCRF S-180): 62.9%

Compound: CCN(CC)CCCNc1nccc2c1[nH]c1ccccc12
- GI50 (HOP-92): 380 nM
- GI50 (HT-29 [12]): 2700 nM
- GI50 (M14): 2000 nM
- GI50 (UACC-62): 2300 nM
- GI50 (OVCAR-3 [13]): 1600 nM
- GI50 (MDA-MB-231): 5200 nM

Compound: O[C@]12C=C(C3=NCCc4c3[nH]c3ccccc43)[C@@H]3CCN(CCCC/C=C\CC1)C[C@@]31C[C@@H]3/C=C\CCCCN3[C@H]12 [3,4-DIHYDROMANZAMINE A]
- IC50 (L1210 [9]; Mus musculus, L1210): 4800 nM
- IC50 (KB): 610 nM

Compound: COc1ccc(-c2c(-c3ccccc3)ncc3[nH]c4ccccc4c23)cc1
- IC50 (MCF7): 20800 nM
- IC50 (HeLa [14]): 33600 nM

Compound: COc1ccc(-c2nc(C3=N/C(=C\c4ccccc4)C(=O)O3)cc3c2[nH]c2ccccc23)cc1
- IC50 (U-251): 480 nM
- IC50 (PC-3): 1500 nM
- IC50 (OVCAR-3 [15]): 1070 nM

Compound: COc1cccc2c1C(=O)c1c(O)c3c(c(O)c1C2=O)C[C@@](O)(C(=O)CO)C[C@@H]3O[C@H]1C[C@H](N)[C@H](O)[C@H](C)O1.Cl [DOXORUBICIN HYDROCHLORIDE]
- TGI (CCRF S-180): 61.1%

Compound: NC1CSCON2CCC3c4ccccc4NC3C12 (stereo not given)
- EC50 (L1210 [16]): 5 nM
- EC50 (MOLT-4F): 5 nM
- EC50 (MT4): 5 nM
- EC50 (P388 [17]): 5 nM

Compound: COc1ccc2c(c1)C1CCN3OCSCC(N)C3C1N2 (stereo not given)
- EC50 (L1210 [16]): < 5 nM
- EC50 (MOLT-4F): < 5 nM
- EC50 (MT4): < 5 nM
- EC50 (P388 [17]): < 5 nM

Compound: COc1cc(-c2nc(Cn3cc(CN4C(=O)c5ccc(C)cc5C4=O)nn3)cc3c2[nH]c2ccccc23)cc(OC)c1OC
- IC50 (HGC-27): < 10000 nM
- IC50 (HT-29 [18]): 3670 nM

Compound: CC(=O)N1N=C(c2ccco2)CC1c1cc2c([nH]c3ccccc32)c(-c2ccc(F)cc2)n1 (stereo not given)
- IC50 (A549 [11]): 1940 nM
- IC50 (DU-145): 1940 nM

Compound: Cc1nccc2c1[nH]c1ccccc12
- ED50 [19]: 23.8 µg/mL (≈ 131 µM)

Compound: Cn1c2cnccc2c2c(Br)c(O)ccc21
- IC50 (L1210 [9]; Mus musculus, L1210): 420 nM
- IC50 (L1210 [9]; l1210): 360 nM
- IC50 (L5178Y): 420 nM

Compound: COc1ccccc1-c1c(-c2ccccc2)ncc2[nH]c3ccccc3c12
- IC50 (MCF7): 35300 nM
- IC50 (HeLa [14]): 35600 nM

Compound: CC[C@H](C)[C@H](NC(=O)[C@H](Cc1c[nH]c2ccccc12)NC(=O)[C@H](Cc1c[nH]c2ccccc12)NC(=O)c1cc2c([nH]c3ccccc32)c(-c2ccc(O)c(OC)c2)n1)C(=O)OCc1ccccc1
- TGI (CCRF S-180): 63.4%

Compound: CNC(CSC)c1nccc2c1[nH]c1ccc(O)c(Br)c12 (stereo not given)
- IC50 (L1210 [9]; Mus musculus, L1210): 1800 nM
- IC50 (L1210 [9]; l1210): 2400 nM
- IC50 (L5178Y): 1800 nM

Compound: O=C(/C=C/c1cc2c([nH]c3ccccc32)c(-c2ccc(F)cc2)n1)c1ccco1
- IC50 (A549 [11]): 1860 nM
- IC50 (DU-145): 1860 nM

Compound: COC(=O)c1ccc([C@H]2c3[nH]c4ccccc4c3C[C@H](C(=O)OC)N2C(=O)CCl)cc1
- IC50 [20]: 2000 nM
- IC50 (Calu-1): 20 nM

Compound: Oc1ccc2[nH]c3c(C4=C[C@@]5(O)CC/C=C\CCCCN6CC[C@@H]4[C@]4(C[C@@H]7/C=C\CCCCN7[C@H]45)C6)nccc3c2c1 [MANZAMINE Y]
- IC50 (L1210 [9]; Mus musculus, L1210): 1500 nM
- IC50 (KB): 2500 nM

Compound: COc1ccc(-c2nc(-c3nc4ccc(F)cc4[nH]3)cc3c2[nH]c2ccccc23)cc1
- IC50 [3]: 1900 nM

Compound: c1ccc2c(c1)[nH]c1cnccc12
- ED50 [19]: 34.4 µg/mL (≈ 205 µM)

Compound: COC(=O)c1cc2c([nH]c3ccccc32)c(-c2ccc(OCc3cn(-c4cccc(Cl)c4Cl)nn3)cc2)n1
- IC50 (HepG2): 32000 nM
- IC50 (HeLa [21]): 46000 nM

Compound: CCN(CC)c1ccc(C2NCCc3c2[nH]c2ccccc32)cc1 (stereo not given)
- IC50 [4]: 0.07 µg/mL (≈ 0.219 µM)
- IC50 (P388 [5]): 0.07 µg/mL (≈ 0.219 µM)
- IC50 (A549 [6]): 0.07 µg/mL (≈ 0.219 µM)
- IC50 (HT-29 [7]): 0.07 µg/mL (≈ 0.219 µM)
